Measured values as given in ChEMBL document CHEMBL5303765, “Data for DCP probe BAY-7081” (2023).

How the values were obtained:
[1] = target: T1, Cyclin-G-associated kinase (Homo sapiens) (UniProt O14976); assay: GAK SGC Tm panel (DSF); settings: for ΔTm: Compound concentration 10.0 uM
T1 sequence (whole entry): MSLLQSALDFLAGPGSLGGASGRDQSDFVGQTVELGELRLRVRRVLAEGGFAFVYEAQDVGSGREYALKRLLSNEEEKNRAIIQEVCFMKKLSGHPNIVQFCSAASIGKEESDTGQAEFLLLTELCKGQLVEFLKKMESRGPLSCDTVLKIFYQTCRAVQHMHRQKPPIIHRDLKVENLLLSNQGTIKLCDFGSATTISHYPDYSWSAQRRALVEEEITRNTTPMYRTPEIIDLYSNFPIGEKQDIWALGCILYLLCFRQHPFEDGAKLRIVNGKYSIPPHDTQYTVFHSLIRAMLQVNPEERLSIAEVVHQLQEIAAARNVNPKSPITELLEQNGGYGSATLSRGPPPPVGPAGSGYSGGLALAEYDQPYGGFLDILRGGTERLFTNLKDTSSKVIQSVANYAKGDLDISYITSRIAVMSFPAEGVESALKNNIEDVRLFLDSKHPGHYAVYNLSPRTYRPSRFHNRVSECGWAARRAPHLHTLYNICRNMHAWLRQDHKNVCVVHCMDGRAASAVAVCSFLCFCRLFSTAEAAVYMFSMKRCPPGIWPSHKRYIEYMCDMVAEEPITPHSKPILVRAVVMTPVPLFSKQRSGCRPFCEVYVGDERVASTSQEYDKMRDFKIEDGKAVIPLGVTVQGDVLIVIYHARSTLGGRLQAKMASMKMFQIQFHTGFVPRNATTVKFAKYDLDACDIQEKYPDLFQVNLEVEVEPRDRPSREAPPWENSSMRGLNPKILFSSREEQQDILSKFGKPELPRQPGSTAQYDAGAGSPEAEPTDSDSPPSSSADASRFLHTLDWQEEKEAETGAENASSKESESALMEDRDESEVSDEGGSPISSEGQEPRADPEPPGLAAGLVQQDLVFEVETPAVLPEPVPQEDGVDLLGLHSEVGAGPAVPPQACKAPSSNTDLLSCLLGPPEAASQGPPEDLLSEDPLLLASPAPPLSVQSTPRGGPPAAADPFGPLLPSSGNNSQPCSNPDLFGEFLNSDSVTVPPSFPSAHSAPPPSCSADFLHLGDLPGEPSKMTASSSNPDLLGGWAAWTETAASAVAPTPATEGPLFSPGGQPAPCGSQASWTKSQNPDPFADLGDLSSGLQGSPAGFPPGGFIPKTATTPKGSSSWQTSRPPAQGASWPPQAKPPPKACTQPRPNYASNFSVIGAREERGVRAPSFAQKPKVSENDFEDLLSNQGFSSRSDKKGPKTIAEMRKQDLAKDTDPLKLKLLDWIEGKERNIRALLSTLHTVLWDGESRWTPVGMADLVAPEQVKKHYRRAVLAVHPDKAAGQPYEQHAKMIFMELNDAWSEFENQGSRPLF

[2] = target: T2, Ribosyldihydronicotinamide dehydrogenase [quinone] (Homo sapiens) (UniProt P16083); assay: NQO2 SGC Tm panel (DSF); settings: for ΔTm: Compound concentration 10.0 uM
T2 sequence (whole entry): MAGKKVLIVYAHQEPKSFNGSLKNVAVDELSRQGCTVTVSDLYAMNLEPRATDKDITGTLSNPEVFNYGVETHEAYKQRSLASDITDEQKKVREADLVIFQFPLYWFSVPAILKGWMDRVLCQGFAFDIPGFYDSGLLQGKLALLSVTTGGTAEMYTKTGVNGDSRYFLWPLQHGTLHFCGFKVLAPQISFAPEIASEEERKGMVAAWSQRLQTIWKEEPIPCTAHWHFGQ

[3] = target: T3, MAP/microtubule affinity-regulating kinase 4 (Homo sapiens) (UniProt Q96L34); assay: MARK4 SGC Tm panel (DSF); settings: for ΔTm: Compound concentration 10.0 uM
T3 sequence (whole entry): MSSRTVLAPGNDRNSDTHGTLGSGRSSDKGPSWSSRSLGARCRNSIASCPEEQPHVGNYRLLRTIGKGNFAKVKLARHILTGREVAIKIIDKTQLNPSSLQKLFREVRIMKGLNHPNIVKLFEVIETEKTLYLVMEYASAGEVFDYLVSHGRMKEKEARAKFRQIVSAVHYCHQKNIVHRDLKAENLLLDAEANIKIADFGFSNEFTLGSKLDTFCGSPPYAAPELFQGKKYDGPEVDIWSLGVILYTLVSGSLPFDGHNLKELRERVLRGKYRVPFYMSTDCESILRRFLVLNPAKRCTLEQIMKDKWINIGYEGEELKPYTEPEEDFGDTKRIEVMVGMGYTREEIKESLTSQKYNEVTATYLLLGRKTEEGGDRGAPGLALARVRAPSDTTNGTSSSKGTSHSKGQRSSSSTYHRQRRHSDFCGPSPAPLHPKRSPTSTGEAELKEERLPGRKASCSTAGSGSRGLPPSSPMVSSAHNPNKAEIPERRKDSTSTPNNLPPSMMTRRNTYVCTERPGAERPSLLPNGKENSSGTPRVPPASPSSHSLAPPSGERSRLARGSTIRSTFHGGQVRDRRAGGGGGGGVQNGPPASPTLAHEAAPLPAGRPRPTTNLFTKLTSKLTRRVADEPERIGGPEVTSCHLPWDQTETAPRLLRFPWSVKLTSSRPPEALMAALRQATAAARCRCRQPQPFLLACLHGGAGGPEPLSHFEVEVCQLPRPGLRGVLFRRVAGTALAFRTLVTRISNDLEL

[4] = target: Cyclin-dependent kinase-like 1 (Homo sapiens) (UniProt Q00532); assay: CDKL1 SGC Tm panel (DSF); settings: for ΔTm: Compound concentration 10.0 uM
Cyclin-dependent kinase-like 1 (Homo sapiens), sequence (Q00532 whole entry): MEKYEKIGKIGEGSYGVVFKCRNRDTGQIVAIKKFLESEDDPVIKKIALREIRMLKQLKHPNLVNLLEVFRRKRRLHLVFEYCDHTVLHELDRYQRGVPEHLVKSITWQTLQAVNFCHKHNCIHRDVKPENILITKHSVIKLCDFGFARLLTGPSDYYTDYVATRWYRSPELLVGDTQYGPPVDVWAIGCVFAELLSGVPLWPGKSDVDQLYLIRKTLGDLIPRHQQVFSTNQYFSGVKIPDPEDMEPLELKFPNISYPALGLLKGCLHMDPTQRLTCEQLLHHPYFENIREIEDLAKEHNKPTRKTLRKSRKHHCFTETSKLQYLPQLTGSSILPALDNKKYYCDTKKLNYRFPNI

[5] = target: Sodium-dependent noradrenaline transporter (Homo sapiens) (UniProt P23975); settings: Compound concentration 10.0 uM
Sodium-dependent noradrenaline transporter (Homo sapiens), sequence (P23975 whole entry): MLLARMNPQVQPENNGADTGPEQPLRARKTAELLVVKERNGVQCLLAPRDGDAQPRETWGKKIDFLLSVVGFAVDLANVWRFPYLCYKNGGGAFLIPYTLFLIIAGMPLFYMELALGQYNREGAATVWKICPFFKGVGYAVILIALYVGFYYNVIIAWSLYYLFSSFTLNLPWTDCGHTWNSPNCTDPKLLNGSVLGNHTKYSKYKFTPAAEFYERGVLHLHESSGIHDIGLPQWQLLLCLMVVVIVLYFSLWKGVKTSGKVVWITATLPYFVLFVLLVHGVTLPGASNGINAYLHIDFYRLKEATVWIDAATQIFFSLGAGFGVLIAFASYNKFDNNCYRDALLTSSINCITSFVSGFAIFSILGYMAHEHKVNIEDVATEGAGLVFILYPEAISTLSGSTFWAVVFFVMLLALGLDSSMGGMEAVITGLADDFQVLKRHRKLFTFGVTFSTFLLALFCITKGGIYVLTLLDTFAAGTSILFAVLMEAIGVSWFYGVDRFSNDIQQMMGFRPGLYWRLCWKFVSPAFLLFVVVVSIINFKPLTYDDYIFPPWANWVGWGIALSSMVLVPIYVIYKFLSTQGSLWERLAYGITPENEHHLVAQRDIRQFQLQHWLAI

[6] = target: Dual specificity protein kinase CLK1 (Homo sapiens) (UniProt P49759); assay: CLK1 SGC Tm panel (DSF); settings: for ΔTm: Compound concentration 10.0 uM
Dual specificity protein kinase CLK1 (Homo sapiens), sequence (P49759 whole entry, looked up): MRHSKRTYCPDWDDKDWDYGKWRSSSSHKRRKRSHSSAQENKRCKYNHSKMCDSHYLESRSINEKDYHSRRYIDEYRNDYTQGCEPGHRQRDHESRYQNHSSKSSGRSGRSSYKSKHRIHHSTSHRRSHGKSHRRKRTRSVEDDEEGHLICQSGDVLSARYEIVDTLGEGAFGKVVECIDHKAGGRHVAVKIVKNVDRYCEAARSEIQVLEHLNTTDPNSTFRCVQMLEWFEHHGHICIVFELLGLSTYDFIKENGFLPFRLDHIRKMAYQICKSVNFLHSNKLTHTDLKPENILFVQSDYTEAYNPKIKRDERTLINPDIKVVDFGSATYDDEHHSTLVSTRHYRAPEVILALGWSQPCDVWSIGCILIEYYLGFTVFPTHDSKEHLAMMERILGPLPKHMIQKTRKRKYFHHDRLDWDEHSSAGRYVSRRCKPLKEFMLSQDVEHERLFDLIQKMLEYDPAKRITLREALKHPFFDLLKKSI

[7] = target: Calcium/calmodulin-dependent protein kinase type II subunit delta (Homo sapiens) (UniProt Q13557); assay: CAMK2D SGC Tm panel (DSF); settings: for ΔTm: Compound concentration 10.0 uM
Calcium/calmodulin-dependent protein kinase type II subunit delta (Homo sapiens), sequence (Q13557 whole entry): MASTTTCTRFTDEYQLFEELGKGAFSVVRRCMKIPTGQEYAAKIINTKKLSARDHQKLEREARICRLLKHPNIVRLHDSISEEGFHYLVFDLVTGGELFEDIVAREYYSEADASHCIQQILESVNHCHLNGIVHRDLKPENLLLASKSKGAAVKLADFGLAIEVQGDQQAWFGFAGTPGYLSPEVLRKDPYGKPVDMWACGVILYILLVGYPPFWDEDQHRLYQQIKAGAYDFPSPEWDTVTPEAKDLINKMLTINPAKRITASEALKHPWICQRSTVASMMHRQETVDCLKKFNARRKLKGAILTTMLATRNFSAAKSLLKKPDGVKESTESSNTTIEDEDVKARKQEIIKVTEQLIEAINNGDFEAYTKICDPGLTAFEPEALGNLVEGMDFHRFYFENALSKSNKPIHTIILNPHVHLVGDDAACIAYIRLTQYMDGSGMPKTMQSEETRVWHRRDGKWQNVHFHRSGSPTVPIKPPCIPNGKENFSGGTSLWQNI

In the case of CCC[C@@H]1CNCc2c1[nH]c(=O)c(C#N)c2N1CCC2(CC1)CC2, the delta Tm Staurosporine positive control [1] is reported as 9.89, the ΔTm [1] is reported as -1.01 and the delta Tm Staurosporine positive control [2] is reported as -1.11. The ΔTm [2] was -0.613, the delta Tm Staurosporine positive control [3] was 15.9 and the ΔTm [3] was 0.243. It also gave a delta Tm Staurosporine positive control [4] of 7.07, a ΔTm [4] of -0.229 and an inhibition [5] of -7.72%. The delta Tm Staurosporine positive control [6] was 11.4, the ΔTm [6] was -0.372 and the delta Tm Staurosporine positive control [7] was 18.2. The ΔTm [7] was -0.155.

CCC[C@H]1CNCc2c1[nH]c(=O)c(C#N)c2N1CCC2(CC1)CC2 gave a delta Tm Staurosporine positive control [1] of 9.89, a ΔTm [1] of -1.15 and a delta Tm Staurosporine positive control [2] of -1.11. For the same compound, the ΔTm [2] was -0.626, the delta Tm Staurosporine positive control [3] was 15.9 and the ΔTm [3] was -0.175. The delta Tm Staurosporine positive control [4] was 7.07, the ΔTm [4] was -0.0258 and the inhibition [5] was -3.72%. The delta Tm Staurosporine positive control [6] was 11.4, the ΔTm [6] was -0.548 and the delta Tm Staurosporine positive control [7] was 18.2. The ΔTm [7] was 0.118.
